These results are taken from PubChem BioAssay AID1963848 (Molecular Pharmacology Branch, DTP, NCI, 2024).

“And” between values parts separate entries of the source, which are not always exact repeats. Equal entries are not always repeated.

As a reminder, the IC50 is the midpoint of a concentration-inhibition curve. As usually defined, the viability, T/C is the ratio of treated to control.

For this experiment, the system named is 379773-124-R-J2-PDC spheroid viability. The experiment is described as follows: Anticancer human tumor 379773-124-R-J2-PDC patient-derived endometrial carcinoma cell line growth inhibition [POLQ]. The note with it: spheroids with HUVEC and MSC; for viability, T/C: stronger effect = lower value. As for the experimental part:
Multicellular complex tumor spheroid response to Polymerase (POL) inhibitors (novobiocin, ART-558, RP6685) in combination with a variety of drugs and investigational agents in selected tumor cell lines
The POL inhibitors (novobiocin, ART-558, and RP6685) were evaluated both individually and in combination with standard of care and investigational anticancer small molecules within a complex spheroid model of solid tumors. . Complex spheroids include a stromal component modeled by human endothelial cells (HUVEC) and fibroblasts modeled by human mesenchymal stem cells (MSCs). The concentration ranges selected for each drug and investigational agent were based upon clinically achievable concentrations if the clinical Cmax of the agent was known.
Compounds. The drugs and investigational agents: novobiocin (NSC847541), ART-558 (NSC835418), RP-6685 (NSC848927), peposertib (NSC802822), ceralasertib (NSC780249), elimusertib (NSC800525), camonsertib (NSC841442), AZD-1390 (NSC803789), olaparib (NSC753686), talazoparib (NSC767125), rucaparib (NSC756644), sotorasib (NSC818433), MRTX-1133 (NSC836407), SN-38 (NSC673596), topotecan (NSC609699), epotoside (NSC141540), doxorubicin (NSC123127), gemcitabine (NSC613327), 5-fluorouracil (NSC19893), paclitaxel (NSC125973), vemurafenib (NSC761431), MSA-2 (NSC828583), SN-011 (NSC837082), adavosertib (NSC754352), prexasertib (NSC758257), carboplatin (NSC241240) and oxaliplatin (NSC266046), were obtained from the National Cancer Institute (NCI) Developmental Therapeutics Program Chemical Repository (21). The FDA-approved anticancer drug set is available from the Developmental Therapeutics Program at https://dtp.cancer.gov/organization/dscb/obtaining/. […] The stock solutions were prepared in dimethyl sulfoxide (DMSO, Sigma-Aldrich, St. Louis, MO, cat. D2650), except for the platinum compounds which were prepared in saline (Quality Biological, Gaithersburg, MD, cat. 114-055-101), at 800-fold the tested concentration and stored at -70 degrees C prior to their use. All drugs and investigational agents were tested over a range starting from a high concentration at or near the clinical Cmax and decreasing in half-log increments. If the clinical Cmax for an agent had not been determined, the highest concentration tested was 10 microM, except for SN-38, which was tested at a high concentration of 1 microM.
Cell Culture. All cells were maintained in an incubator at 37 degrees C and 5% CO2 with 95% humidity. The PDC lines were cultured according to standard operating procedures established by the NCI PDMR (https://pdmr.cancer.gov). Table 3 of the manuscript, lists the cell lines along with the number of the three cell types plated to form the mct-spheroids and media for tumor cell growth. After thawing, all PDC lines, except 997537-175-T-J1-PDC and 415267-285-R-J2-PDC, were cultured in Matrigel-coated flasks prepared with a working solution of 1X Ham's F-12 nutrient mix, without supplementation (Thermo Fisher Scientific, cat. 11765054), 100 U/mL penicillin-streptomycin (Thermo Fisher Scientific, cat. 15140122), and 2.5% Matrigel (Corning Inc., Corning, NY, cat. 354248) for the first three passages. The two PDC lines 997537-175-T-J1-PDC and 415267-285-R-J2-PDC were cultured on uncoated flasks. The 857933-349-R-J2-PDC line was cultured in 6C/Colon 1B media containing advanced DMEM/F-12 (Thermo Fisher Scientific, cat. 12634028), 10 mM HEPES (Thermo Fisher Scientific, cat. 15630080), 1X GlutaMAX supplement (Thermo Fisher Scientific, cat. 35050061), 0.1 mg/mL primocin (InvivoGen, San Diego, CA, cat. ant-pm-2), 10% defined fetal bovine serum, heat inactivated (HyClone Laboratories Inc., Logan, UT, cat. SH30070.03HI), 50% L-WRN conditioned media (ATCC, cat. CRL-3276), 1.25 mM N-Acetyl-L-cysteine (Sigma-Aldrich, cat. A9165), 10 mM nicotinamide (Sigma-Aldrich, cat. N0636), 1X B-27 supplement (Thermo Fisher Scientific, cat. 17504044), 1X N-2 supplement (Thermo Fisher Scientific, cat. […]
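Note: spheroids exposed to drugs for seven days before readout.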
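Throughout, for viability, T/C: percent viability relative to DMSO vehicle control taken as 100%.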

For the molecule `O=c1[nH]cc(F)c(=O)[nH]1` + Nc1ccc(C#CCN(C(=O)Cc2ncc(C(F)(F)F)cc2C(F)(F)F)c2ccc(F)cc2)nn1, the IC50 (curve of first compound, second compound 0.0316 µM) is > 10 µM; the IC50 (curve of first compound, second compound 0.1 µM) is > 10 µM; the IC50 (curve of first compound, second compound 0.316 µM) was > 10 µM; the half-inhibitory concentration (IC50) (curve of first compound, second compound 1 µM) was > 10 µM; the IC50 (curve of first compound, second compound 3.16 µM) is > 10 µM; the IC50 (curve of first compound, second compound 10 µM) is > 10 µM. For the same molecule, the viability, T/C (second compound 0.0316 µM, first compound 0.0316 µM) is 93.1%; the viability, T/C (second compound 0.0316 µM, first compound 0.1 µM) is 93%; the viability, T/C (second compound 0.0316 µM, first compound 0.316 µM) was 99.6%; the viability, T/C (second compound 0.0316 µM, first compound 1 µM) was 85.2%; the viability, T/C (second compound 0.0316 µM, first compound 3.16 µM) was 78.1%; the viability, T/C (second compound 0.0316 µM, first compound 10 µM) was 55.7%. Moreover, the viability, T/C (second compound 0.1 µM, first compound 0.0316 µM) is 89.2%; the viability, T/C (second compound 0.1 µM, first compound 0.1 µM) is 98.1%; the viability, T/C (second compound 0.1 µM, first compound 0.316 µM) is 95.1%; the viability, T/C (second compound 0.1 µM, first compound 1 µM) is 80.4%; the viability, T/C (second compound 0.1 µM, first compound 3.16 µM) is 78.8%; the viability, T/C (second compound 0.1 µM, first compound 10 µM) is 59.6%. Besides, the viability, T/C is 96.1% (second compound 0.316 µM, first compound 0.0316 µM); 98.1% (second compound 0.316 µM, first compound 0.1 µM); 98.2% (second compound 0.316 µM, first compound 0.316 µM); 94.7% (second compound 0.316 µM, first compound 1 µM); 74.4% (second compound 0.316 µM, first compound 3.16 µM); 62% (second compound 0.316 µM, first compound 10 µM). Further, the viability, T/C is 92.3% (second compound 1 µM, first compound 0.0316 µM); 85.3% (second compound 1 µM, first compound 0.1 µM); 95.3% (second compound 1 µM, first compound 0.316 µM); 87.2% (second compound 1 µM, first compound 1 µM); 75.9% (second compound 1 µM, first compound 3.16 µM); 51.3% (second compound 1 µM, first compound 10 µM). Also, the viability, T/C is 94.1% (second compound 3.16 µM, first compound 0.0316 µM); 83% (second compound 3.16 µM, first compound 0.1 µM); 91.3% (second compound 3.16 µM, first compound 0.316 µM); 82.4% (second compound 3.16 µM, first compound 1 µM); 74.1% (second compound 3.16 µM, first compound 3.16 µM); 57.7% (second compound 3.16 µM, first compound 10 µM). Also, the viability, T/C (second compound 10 µM, first compound 0.0316 µM) was 87.4%; the viability, T/C (second compound 10 µM, first compound 0.1 µM) was 88.2%; the viability, T/C (second compound 10 µM, first compound 0.316 µM) was 93.5%; the viability, T/C (second compound 10 µM, first compound 1 µM) was 90.2%; the viability, T/C (second compound 10 µM, first compound 3.16 µM) was 63.1%; the viability, T/C (second compound 10 µM, first compound 10 µM) was 57.6%.
For `CCc1cc2c(N3CCc4c(cc(Cn5ccnc5)cc4-c4cn(C)nc4C(F)(F)F)C3=O)ccnc2c(OC)n1`, the viability, T/C runs as follows: (compound 0.0316 µM) 72.1% and 87.3% and 77.8%; (compound 0.1 µM) 65% and 74.8% and 74.2%; (compound 0.316 µM) 53.4% and 64% and 69.2%; (compound 1 µM) 54.6% and 64.1% and 67.8%; (compound 3.16 µM) 63.3% and 59.9% and 57.4%; (compound 10 µM) 37.2% and 57.8% and 53.6%. In addition, the IC50 (curve of compound) was 3.4 µM and > 10 µM.
Turning to `Cc1cccc(N(C)C(=O)C2C(O)CCN2c2nc(C)cc(C(F)(F)F)c2C#N)c1` (configuration not stated), the viability, T/C is 89.8% [middle of 13 runs] (compound 0.0316 µM); 90.7% [middle of 13 runs] (compound 0.1 µM); 88.2% [middle of 13 runs] (compound 0.316 µM); 88.2% [middle of 13 runs] (compound 1 µM); 89% [middle of 13 runs] (compound 3.16 µM); 92.7% [middle of 13 runs] (compound 10 µM). For the same molecule, the IC50 is, setting by setting: (compound alone, run of 10/31/2023) > 10 µM; (compound alone, run of 11/06/2023) > 10 µM.
